Test results as given in PMC5566973 (Frontiers in Pharmacology, 2017).

How the values were obtained:
in vitro = assay: in vitro
Method: (§1) Caco-2, MDCK and MDCK-MRP2 cells were donated by Prof. Yan Xie and Yueming Ma from Shanghai University of Traditional Chinese Medicine. The cells were grown in culture dishes (Corning® Costar, Cambridge, MA, USA) using DMEM supplemented with 10% FBS, 1% NEAA and 1% penicillin-streptomycin solution. The cells were cultured in 5% CO2 and […] with 90% relative humidity at 37°C. The medium was replaced every other day during incubation. The cells were passaged every 3–4 days between 70 and 80% confluence at a 1:5 split ratio using 0.25% trypsin-EDTA. For the transport experiments, the cells from passages between 30 and 45 were seeded at 1 × 10^5 cells/cm^2 onto permeable polycarbonate inserts (0.45 μm pore size, seeding surface of 0.6 cm^2, Millipore, MA, USA) in 24-well plastic plates. The media in the culture plates were changed every other day for the first week after seeding and were replaced daily afterward. […] The cells were used for the transport experiments 21–28 (Caco-2) or 5–7 (MDCK and MDCK-MRP2) days after seeding, and only monolayers with a TEER-value above 420 Ω cm^2 were used during the studies.
(§2) The apical (AP) and basolateral (BL) sides are typical of polarized Caco-2, MDCK and MDCK-MRP2 epithelial cells. Before the experiments, the polarized cell monolayers were washed twice with warm HBSS solution and subsequently preincubated (37°C, 30 min). Afterward, HBSS solution on both sides of the cell monolayers was removed using a mini desktop vacuum pump. […] The final DMSO concentration in the HBSS or drug mixture was below 0.5%. The monolayers were incubated at 37°C, and 100 μL samples were taken at 30, 60, 90, and 120 min from the acceptor compartment and immediately replaced with the same volume of prewarmed fresh blank HBSS. TEER measurements for assessing the membrane integrity took place before and after the experiments.
(§3) The apparent permeability coefficients (Papp) and ER were calculated as Equations (2) and (3): […]
(§4) where dQ/dt is the steady-state flux, A is the membrane surface area, and C0 is the initial drug concentration in the donor compartment. PappBA is the Papp-value measured in BL to AP direction and PappAB is the Papp-value measured in AP to BL direction. It indicated the involvement of an active transport process when the ER-value is above 1.5 (Hubatsch et al., [2007]).

[1] = test system: ATP (adenosine triphosphate); assay: in vitro; conditions: human, Caco-2, ER, Caco-2, 2 μM, + NaN3 10 mM (ATP)
Method: as §1, §2, §3, §4

BCRP = assay: in vitro; conditions: human, Caco-2, ER, Caco-2, 2 μM
Method: as §1, §2, §3, §4

Caco-2 cell monolayers = assay: in vitro; conditions: Caco-2, 2 μM
Method: as §1, §2, §3, §4

COc1ccc2c3c([nH]c2c1)C(C)=NCC3 [Harmaline]
efflux ratio (in vitro; dog, MDCK, ER, 2 μM, 4°C): 1.23 | efflux ratio (in vitro; dog, MDCK, ER, 2 μM, with EDTA 5 mM): 0.9 | efflux ratio (in vitro; dog, MDCK, ER, initial concentration 1 μM): 1.23 | efflux ratio (in vitro; dog, MDCK, ER, initial concentration 2 μM): 1.03 | efflux ratio (in vitro; dog, MDCK, ER, initial concentration 5 μM): 1.16 | Papp A→B (in vitro; dog, MDCK, PappAB, initial concentration 1 μM): 158 ± 17.6 nm/s | Papp A→B (in vitro; dog, MDCK, PappAB, initial concentration 2 μM): 204 ± 18.2 nm/s | Papp A→B (in vitro; dog, MDCK, PappAB, initial concentration 5 μM): 212 ± 13.2 nm/s | Papp B→A (in vitro; dog, MDCK, PappBA, initial concentration 1 μM): 195 ± 22.5 nm/s | Papp B→A (in vitro; dog, MDCK, PappBA, initial concentration 2 μM): 210 ± 21.1 nm/s | Papp B→A (in vitro; dog, MDCK, PappBA, initial concentration 5 μM): 245 ± 25.4 nm/s | efflux ratio (in vitro; dog, MDCK, pH 5.5, ER, 2 μM, pH 5.5): 1.18 | Papp A→B (in vitro; dog, MDCK, pH 5.5, PappAB, 2 μM, pH 5.5): 130 ± 25.4 nm/s | Papp B→A (in vitro; dog, MDCK, pH 5.5, PappBA, 2 μM, pH 5.5): 154 ± 9.1 nm/s | efflux ratio (in vitro; dog, MDCK, pH 7.4, ER, 2 μM, Control (pH 7.4, 37°C, without EDTA)): 1.03 | efflux ratio (in vitro; human, Caco-2, ER, Caco-2, 2 μM, 4°C): 1.15 | efflux ratio (in vitro; human, Caco-2, ER, Caco-2, 2 μM, Control (no inhibitor or substrate)): 0.95 | efflux ratio (in vitro; human, Caco-2, ER, Caco-2, 2 μM, with EDTA 5 mM): 1.12 | efflux ratio (in vitro; human, Caco-2, ER, Caco-2, initial concentration 1 μM): 0.93 | efflux ratio (in vitro; human, Caco-2, ER, Caco-2, initial concentration 2 μM): 0.95 | efflux ratio (in vitro; human, Caco-2, ER, Caco-2, initial concentration 5 μM): 1.03 | Papp A→B (in vitro; human, Caco-2, PappAB, Caco-2, initial concentration 1 μM): 274 ± 14.4 nm/s | Papp A→B (in vitro; human, Caco-2, PappAB, Caco-2, initial concentration 5 μM): 301 ± 30.1 nm/s | Papp B→A (in vitro; human, Caco-2, PappBA, Caco-2, 2 μM, 4°C): 87.1 ± 18.3 nm/s | Papp B→A (in vitro; human, Caco-2, PappBA, Caco-2, initial concentration 1 μM): 256 ± 19.5 nm/s | Papp B→A (in vitro; human, Caco-2, PappBA, Caco-2, initial concentration 2 μM): 264 ± 4.9 nm/s | Papp B→A (in vitro; human, Caco-2, PappBA, Caco-2, initial concentration 5 μM): 310 ± 14 nm/s | efflux ratio (in vitro; human, Caco-2, pH 5.5, ER, Caco-2, 2 μM, pH 5.5): 0.88 | Papp A→B (in vitro; human, Caco-2, pH 5.5, PappAB, Caco-2, 2 μM, pH 5.5): 76 ± 7.4 nm/s | Papp B→A (in vitro; human, Caco-2, pH 5.5, PappBA, Caco-2, 2 μM, pH 5.5): 67.2 ± 7.6 nm/s | efflux ratio (in vitro; human, Caco-2, pH 7.4, ER, Caco-2, 2 μM, Control (pH 7.4, 37°C, without EDTA)): 0.95 | efflux ratio [1]: 1.15 | efflux ratio (BCRP; + Apigenin 0.025 mM (BCRP)): 0.94 | efflux ratio (BCRP; + Ko143 0.01 mM (BCRP)): 0.93 | PappAB at pH 7.4 relative to pH 5.5 (Caco-2 cell monolayers): 3.65 folds | PappAB (Caco-2 cell monolayers; 4°C): 7.59 ± 0.33^*** 1 × 10^−6 cm/s | PappAB (Caco-2 cell monolayers; 4°C, listed as harmaline): 7.59 ± 0.33 1 × 10^−6 cm/s | Modulatory effect (Caco-2 cell monolayers; + Apigenin 0.025 mM (BCRP)): − | PappAB (Caco-2 cell monolayers; + Apigenin 0.025 mM (BCRP)): 27.85 ± 2.09 1 × 10^−6 cm/s | PappBA (Caco-2 cell monolayers; + Apigenin 0.025 mM (BCRP)): 26.04 ± 1.43 1 × 10^−6 cm/s | Modulatory effect (Caco-2 cell monolayers; + Cimetidine 0.05 mM (OATs)): − | PappBA (Caco-2 cell monolayers; + Cimetidine 0.05 mM (OATs)): 26.16 ± 1.79 1 × 10^−6 cm/s | Modulatory effect (Caco-2 cell monolayers; + ES 0.05 mM (OATPs)): + | PappAB (Caco-2 cell monolayers; + ES 0.05 mM (OATPs)): 24.33 ± 0.49 1 × 10^−6 cm/s | PappBA (Caco-2 cell monolayers; + ES 0.05 mM (OATPs)): 26.41 ± 0.94 1 × 10^−6 cm/s | Modulatory effect (Caco-2 cell monolayers; + Gly-Sar 10 mM (PEPT1)): − | PappAB (Caco-2 cell monolayers; + Gly-Sar 10 mM (PEPT1)): 27.73 ± 0.95 1 × 10^−6 cm/s | PappBA (Caco-2 cell monolayers; + Gly-Sar 10 mM (PEPT1)): 26.31 ± 1.18 1 × 10^−6 cm/s | Modulatory effect (Caco-2 cell monolayers; + Ko143 0.01 mM (BCRP)): − | PappBA (Caco-2 cell monolayers; + Ko143 0.01 mM (BCRP)): 26.15 ± 0.48 1 × 10^−6 cm/s
